# Laboratory results as given in article PMC8333425, “Discovery of a dual Ras and ARF6 inhibitor from a GPCR endocytosis screen” (Nature Communications, 2021).
# What was measured:
# Assay in all cases: KINOMEscan kinase binding assay
# [1] = target: T1, 384 kinases from the human genome (Homo sapiens, UniProt P43405); details: kinase SYK (Entrez SYK)
# T1 construct: purchased Eurofin/DiscoverX
# From the text: (§1) We reasoned that because internalizing AT1R and its targeting to intracellular compartments can support continued MAPK signaling, and since 21 inhibits receptor internalization, it should also impede to some extent ERK1/2 activation. […] Receptor-mediated ERK1/2 signaling can involve upstream kinases such as PKC, BRAF, and MEK1[35],[36]. […] To exclude other kinases potentially involved in ERK1/2 and Akt activation as targets of 21, we ran a kinase binding assay (KINOMEscan™) on 384 kinases from the human genome. Remarkably, a very high selectivity score S(10) of 0.008 was found (Supplementary Data 3).
# (§2) The chemical library used for initial screening was from Chembridge DiverSet™ (60,000 compounds), Maybridge HitFinder™ (16,000 compounds), Maybridge (selected, 16,000 compounds), SPECS (selected, 16000 compounds), Microsource Discovery Spectrum (2000 compounds), Biomol (natural products, 500 compounds), Prestwick (commercialized products, 1120 compounds), SIGMA LopacTM (1280 compounds) and internal collection (synthesized at Université de Montréal-IRIC, ~4000 compounds). Compounds were all assigned an Université de Montréal number (UM) for internal use. Screen was performed at IRIC HTS facility. KINOMEscan™ profiling was serviced by Eurofin/DiscoverX (San Diego, USA).
# (§3) Description of Additional Supplementary Files […]
# (§4) File Name: Supplementary Data 3
# (§5) Description: KINOMEscan results. Compound 21’s effect was tested on 384 kinases. Data represent kinases binding to their ligands in presence of 10 µM of 21, as compared to DMSO (100%). Results are from one experiment and represent the average of duplicates. Three kinases (FLT3, KIT, and PDGFRB) out of 384 were more than 90% affected (selectivity score S(10) of 0.008). […]
# [2] = target: T2, 384 kinases from the human genome (Homo sapiens, UniProt Q9H422); details: kinase HIPK3 (Entrez HIPK3)
# T2 construct: purchased Eurofin/DiscoverX
# From the text: as §1, §2, §3, §4, §5
# [3] = target: T3, 384 kinases from the human genome (Homo sapiens, UniProt Q16584); details: kinase MLK3 (Entrez MAP3K11)
# T3 construct: purchased Eurofin/DiscoverX
# From the text: as §1, §2, §3, §4, §5
# [4] = target: T4, 384 kinases from the human genome (Homo sapiens, UniProt P35626); details: kinase GRK3 (Entrez ADRBK2)
# T4 construct: purchased Eurofin/DiscoverX
# From the text: as §1, §2, §3, §4, §5
# [5] = target: T5, 384 kinases from the human genome (Homo sapiens, UniProt P07949); details: kinase RET (Entrez RET)
# T5 construct: purchased Eurofin/DiscoverX
# From the text: as §1, §2, §3, §4, §5
# [6] = target: T6, 384 kinases from the human genome (Homo sapiens, UniProt Q8NEB9); details: kinase VPS34 (Entrez PIK3C3)
# T6 construct: purchased Eurofin/DiscoverX
# From the text: as §1, §2, §3, §4, §5
# [7] = target: T7, 384 kinases from the human genome (Homo sapiens, UniProt Q16566); details: kinase CAMK4 (Entrez CAMK4)
# T7 construct: purchased Eurofin/DiscoverX
# From the text: as §1, §2, §3, §4, §5
# [8] = target: T8, 384 kinases from the human genome (Homo sapiens, UniProt P57059); details: kinase SIK (Entrez SIK1)
# T8 construct: purchased Eurofin/DiscoverX
# From the text: as §1, §2, §3, §4, §5
# [9] = target: T9, 384 kinases from the human genome (Homo sapiens, UniProt Q14012); details: kinase CAMK1 (Entrez CAMK1)
# T9 construct: purchased Eurofin/DiscoverX
# From the text: as §1, §2, §3, §4, §5
# [10] = target: T10, 384 kinases from the human genome (Homo sapiens, UniProt Q9UEE5); details: kinase DRAK1 (Entrez STK17A)
# T10 construct: purchased Eurofin/DiscoverX
# From the text: as §1, §2, §3, §4, §5
# [11] = target: T11, 384 kinases from the human genome (Homo sapiens, UniProt Q92772); details: kinase CDKL2 (Entrez CDKL2)
# T11 construct: purchased Eurofin/DiscoverX
# From the text: as §1, §2, §3, §4, §5
# [12] = target: T12, 384 kinases from the human genome (Homo sapiens, UniProt Q15139); details: kinase PRKD1 (Entrez PRKD1)
# T12 construct: purchased Eurofin/DiscoverX
# From the text: as §1, §2, §3, §4, §5
# [13] = target: T13, 384 kinases from the human genome (Homo sapiens, UniProt Q9Y2K2); details: kinase QSK (Entrez KIAA0999)
# T13 construct: purchased Eurofin/DiscoverX
# From the text: as §1, §2, §3, §4, §5
# [14] = target: T14, 384 kinases from the human genome (Homo sapiens, UniProt O95835); details: kinase LATS1 (Entrez LATS1)
# T14 construct: purchased Eurofin/DiscoverX
# From the text: as §1, §2, §3, §4, §5
# [15] = target: T15, 384 kinases from the human genome (Homo sapiens, UniProt P54753); details: kinase EPHB3 (Entrez EPHB3)
# T15 construct: purchased Eurofin/DiscoverX
# From the text: as §1, §2, §3, §4, §5
# [16] = target: T16, 384 kinases from the human genome (Homo sapiens, UniProt P20794); details: kinase MAK (Entrez MAK)
# T16 construct: purchased Eurofin/DiscoverX
# From the text: as §1, §2, §3, §4, §5
# [17] = target: T17, 384 kinases from the human genome (Homo sapiens, UniProt Q04912); details: kinase MST1R (Entrez MST1R)
# T17 construct: purchased Eurofin/DiscoverX
# From the text: as §1, §2, §3, §4, §5
# [18] = target: T18, 384 kinases from the human genome (Homo sapiens, UniProt Q86Z02); details: kinase HIPK1 (Entrez HIPK1)
# T18 construct: purchased Eurofin/DiscoverX
# From the text: as §1, §2, §3, §4, §5
# [19] = target: T19, 384 kinases from the human genome (Homo sapiens, UniProt P30291); details: kinase WEE1 (Entrez WEE1)
# T19 construct: purchased Eurofin/DiscoverX
# From the text: as §1, §2, §3, §4, §5
# [20] = target: T20, 384 kinases from the human genome (Homo sapiens, UniProt Q15375); details: kinase EPHA7 (Entrez EPHA7)
# T20 construct: purchased Eurofin/DiscoverX
# From the text: as §1, §2, §3, §4, §5
# [21] = target: T21, 384 kinases from the human genome (Homo sapiens, UniProt P19784); details: kinase CSNK2A2 (Entrez CSNK2A2)
# T21 construct: purchased Eurofin/DiscoverX
# From the text: as §1, §2, §3, §4, §5
# [22] = target: T22, 384 kinases from the human genome (Homo sapiens, UniProt Q9Y6M4); details: kinase CSNK1G3 (Entrez CSNK1G3)
# T22 construct: purchased Eurofin/DiscoverX
# From the text: as §1, §2, §3, §4, §5
# [23] = target: T23, 384 kinases from the human genome (Homo sapiens, UniProt Q8TBX8); details: kinase PIP5K2C (Entrez PIP4K2C)
# T23 construct: purchased Eurofin/DiscoverX
# From the text: as §1, §2, §3, §4, §5
# [24] = target: T24, 384 kinases from the human genome (Homo sapiens, UniProt Q9NSY1); details: kinase BIKE (Entrez BMP2K)
# T24 construct: purchased Eurofin/DiscoverX
# From the text: as §1, §2, §3, §4, §5
# [25] = target: T25, 384 kinases from the human genome (Homo sapiens, UniProt O15146); details: kinase MUSK (Entrez MUSK)
# T25 construct: purchased Eurofin/DiscoverX
# From the text: as §1, §2, §3, §4, §5
# [26] = target: T26, 384 kinases from the human genome (Homo sapiens, UniProt O15530); details: kinase PDPK1 (Entrez PDPK1)
# T26 construct: purchased Eurofin/DiscoverX
# From the text: as §1, §2, §3, §4, §5
# T13 sequence (Q9Y2K2 whole entry): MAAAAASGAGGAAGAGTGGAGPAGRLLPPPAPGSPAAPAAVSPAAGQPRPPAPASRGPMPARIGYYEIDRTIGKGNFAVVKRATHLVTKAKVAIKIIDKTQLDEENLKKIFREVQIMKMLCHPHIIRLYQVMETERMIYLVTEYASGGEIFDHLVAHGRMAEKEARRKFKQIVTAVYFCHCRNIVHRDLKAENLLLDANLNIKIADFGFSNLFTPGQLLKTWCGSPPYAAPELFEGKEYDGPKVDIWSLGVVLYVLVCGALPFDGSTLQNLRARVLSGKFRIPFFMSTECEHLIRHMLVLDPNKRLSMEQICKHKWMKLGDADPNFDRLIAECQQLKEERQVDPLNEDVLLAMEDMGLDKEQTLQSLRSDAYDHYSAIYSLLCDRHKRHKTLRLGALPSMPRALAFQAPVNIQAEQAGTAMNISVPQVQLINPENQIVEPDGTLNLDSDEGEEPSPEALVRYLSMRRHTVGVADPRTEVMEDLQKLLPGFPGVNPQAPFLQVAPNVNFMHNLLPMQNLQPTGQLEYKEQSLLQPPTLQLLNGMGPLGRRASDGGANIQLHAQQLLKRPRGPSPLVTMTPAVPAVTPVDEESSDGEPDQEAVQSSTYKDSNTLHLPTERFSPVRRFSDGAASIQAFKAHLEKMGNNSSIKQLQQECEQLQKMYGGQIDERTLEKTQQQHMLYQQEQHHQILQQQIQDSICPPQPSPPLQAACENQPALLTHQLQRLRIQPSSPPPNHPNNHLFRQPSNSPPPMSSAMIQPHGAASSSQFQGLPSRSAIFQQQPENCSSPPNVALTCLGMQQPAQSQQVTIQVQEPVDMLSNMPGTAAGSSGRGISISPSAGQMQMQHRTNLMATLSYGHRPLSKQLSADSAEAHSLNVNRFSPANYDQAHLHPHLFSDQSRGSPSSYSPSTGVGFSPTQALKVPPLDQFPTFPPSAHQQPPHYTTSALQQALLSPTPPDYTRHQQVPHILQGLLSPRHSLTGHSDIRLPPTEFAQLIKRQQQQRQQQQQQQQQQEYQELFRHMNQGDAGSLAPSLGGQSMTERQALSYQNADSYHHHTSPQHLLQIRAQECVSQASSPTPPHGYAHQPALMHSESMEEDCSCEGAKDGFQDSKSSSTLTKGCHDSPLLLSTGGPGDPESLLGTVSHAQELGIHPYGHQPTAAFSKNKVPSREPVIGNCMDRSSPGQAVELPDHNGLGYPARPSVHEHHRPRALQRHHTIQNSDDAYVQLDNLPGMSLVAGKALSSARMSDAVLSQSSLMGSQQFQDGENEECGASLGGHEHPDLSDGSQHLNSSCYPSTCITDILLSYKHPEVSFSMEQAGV
# T7 sequence (Q16566 whole entry): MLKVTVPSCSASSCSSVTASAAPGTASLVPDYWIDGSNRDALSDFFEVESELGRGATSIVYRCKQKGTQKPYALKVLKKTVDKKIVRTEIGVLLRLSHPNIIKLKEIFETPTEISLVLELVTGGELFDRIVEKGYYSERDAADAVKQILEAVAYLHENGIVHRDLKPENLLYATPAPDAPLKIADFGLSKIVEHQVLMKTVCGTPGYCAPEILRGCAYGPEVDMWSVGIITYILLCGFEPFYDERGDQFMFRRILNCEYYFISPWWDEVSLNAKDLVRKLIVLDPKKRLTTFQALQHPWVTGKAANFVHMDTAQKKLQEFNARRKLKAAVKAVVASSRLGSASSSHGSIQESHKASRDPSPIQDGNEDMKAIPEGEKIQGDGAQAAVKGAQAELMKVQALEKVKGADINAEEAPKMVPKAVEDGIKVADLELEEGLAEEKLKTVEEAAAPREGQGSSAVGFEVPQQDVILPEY
# T15 sequence (P54753 34-998): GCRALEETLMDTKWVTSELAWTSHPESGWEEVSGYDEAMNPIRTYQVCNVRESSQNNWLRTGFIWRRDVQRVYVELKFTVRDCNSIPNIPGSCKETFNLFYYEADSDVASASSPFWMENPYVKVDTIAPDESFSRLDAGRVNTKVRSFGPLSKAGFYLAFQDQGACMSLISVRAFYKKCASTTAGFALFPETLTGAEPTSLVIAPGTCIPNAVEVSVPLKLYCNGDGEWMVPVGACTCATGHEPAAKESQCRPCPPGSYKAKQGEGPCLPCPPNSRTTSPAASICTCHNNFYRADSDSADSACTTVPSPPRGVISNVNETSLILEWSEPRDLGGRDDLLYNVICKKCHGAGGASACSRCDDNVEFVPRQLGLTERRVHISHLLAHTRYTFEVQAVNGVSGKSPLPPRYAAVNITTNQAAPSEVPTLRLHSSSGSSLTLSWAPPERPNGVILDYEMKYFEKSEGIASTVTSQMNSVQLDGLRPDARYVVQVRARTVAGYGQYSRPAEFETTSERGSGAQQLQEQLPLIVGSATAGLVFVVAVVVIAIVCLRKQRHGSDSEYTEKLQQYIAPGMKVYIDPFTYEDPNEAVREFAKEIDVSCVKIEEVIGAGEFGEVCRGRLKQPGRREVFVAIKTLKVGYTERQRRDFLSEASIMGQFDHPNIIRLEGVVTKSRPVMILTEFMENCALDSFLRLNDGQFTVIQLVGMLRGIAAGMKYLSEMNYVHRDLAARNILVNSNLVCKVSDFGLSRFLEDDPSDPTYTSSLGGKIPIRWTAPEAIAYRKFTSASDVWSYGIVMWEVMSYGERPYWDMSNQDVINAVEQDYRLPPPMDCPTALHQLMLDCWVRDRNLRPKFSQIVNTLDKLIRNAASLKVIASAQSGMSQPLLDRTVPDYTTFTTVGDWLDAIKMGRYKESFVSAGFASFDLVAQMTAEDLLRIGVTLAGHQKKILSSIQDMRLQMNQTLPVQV
# T20 sequence (Q15375 28-998): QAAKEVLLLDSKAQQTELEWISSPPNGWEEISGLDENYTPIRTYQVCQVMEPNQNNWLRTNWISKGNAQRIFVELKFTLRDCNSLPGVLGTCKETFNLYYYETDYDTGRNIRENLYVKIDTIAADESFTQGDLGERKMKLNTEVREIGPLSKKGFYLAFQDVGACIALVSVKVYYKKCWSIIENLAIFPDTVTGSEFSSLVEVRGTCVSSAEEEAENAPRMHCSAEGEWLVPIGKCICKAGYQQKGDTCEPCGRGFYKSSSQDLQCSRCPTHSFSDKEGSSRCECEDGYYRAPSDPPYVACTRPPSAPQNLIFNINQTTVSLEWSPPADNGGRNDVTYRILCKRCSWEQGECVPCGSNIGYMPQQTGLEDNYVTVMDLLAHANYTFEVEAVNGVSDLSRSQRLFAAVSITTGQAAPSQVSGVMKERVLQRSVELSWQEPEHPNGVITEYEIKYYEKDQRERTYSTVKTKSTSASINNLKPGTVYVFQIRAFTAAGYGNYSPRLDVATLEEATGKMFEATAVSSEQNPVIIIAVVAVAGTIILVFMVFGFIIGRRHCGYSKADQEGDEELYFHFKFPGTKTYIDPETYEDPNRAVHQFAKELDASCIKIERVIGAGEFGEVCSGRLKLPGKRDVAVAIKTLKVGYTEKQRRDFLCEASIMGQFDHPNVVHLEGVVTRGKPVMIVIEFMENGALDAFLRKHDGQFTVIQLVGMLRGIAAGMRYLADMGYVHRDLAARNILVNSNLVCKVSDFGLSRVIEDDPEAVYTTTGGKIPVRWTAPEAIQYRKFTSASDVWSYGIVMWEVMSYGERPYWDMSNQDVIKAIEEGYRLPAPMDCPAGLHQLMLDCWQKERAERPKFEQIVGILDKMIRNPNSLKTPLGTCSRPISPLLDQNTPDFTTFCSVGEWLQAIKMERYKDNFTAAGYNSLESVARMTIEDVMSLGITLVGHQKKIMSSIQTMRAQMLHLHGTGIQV
# T26 sequence (O15530 whole entry): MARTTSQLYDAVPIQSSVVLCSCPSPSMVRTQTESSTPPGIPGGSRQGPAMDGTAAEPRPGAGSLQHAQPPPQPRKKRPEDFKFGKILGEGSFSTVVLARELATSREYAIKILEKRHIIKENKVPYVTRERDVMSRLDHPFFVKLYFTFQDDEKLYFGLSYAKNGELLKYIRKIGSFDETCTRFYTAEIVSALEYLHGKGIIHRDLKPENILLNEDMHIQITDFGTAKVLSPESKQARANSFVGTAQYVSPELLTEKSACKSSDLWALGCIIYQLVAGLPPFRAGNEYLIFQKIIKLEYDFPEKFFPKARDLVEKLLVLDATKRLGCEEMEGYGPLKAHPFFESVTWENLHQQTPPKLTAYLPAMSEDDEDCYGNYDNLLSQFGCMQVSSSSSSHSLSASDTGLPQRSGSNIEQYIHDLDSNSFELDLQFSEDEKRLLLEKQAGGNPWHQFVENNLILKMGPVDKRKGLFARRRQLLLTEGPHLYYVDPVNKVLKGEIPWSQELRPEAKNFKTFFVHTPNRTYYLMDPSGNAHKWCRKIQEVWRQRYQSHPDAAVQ
# T8 sequence (P57059 whole entry): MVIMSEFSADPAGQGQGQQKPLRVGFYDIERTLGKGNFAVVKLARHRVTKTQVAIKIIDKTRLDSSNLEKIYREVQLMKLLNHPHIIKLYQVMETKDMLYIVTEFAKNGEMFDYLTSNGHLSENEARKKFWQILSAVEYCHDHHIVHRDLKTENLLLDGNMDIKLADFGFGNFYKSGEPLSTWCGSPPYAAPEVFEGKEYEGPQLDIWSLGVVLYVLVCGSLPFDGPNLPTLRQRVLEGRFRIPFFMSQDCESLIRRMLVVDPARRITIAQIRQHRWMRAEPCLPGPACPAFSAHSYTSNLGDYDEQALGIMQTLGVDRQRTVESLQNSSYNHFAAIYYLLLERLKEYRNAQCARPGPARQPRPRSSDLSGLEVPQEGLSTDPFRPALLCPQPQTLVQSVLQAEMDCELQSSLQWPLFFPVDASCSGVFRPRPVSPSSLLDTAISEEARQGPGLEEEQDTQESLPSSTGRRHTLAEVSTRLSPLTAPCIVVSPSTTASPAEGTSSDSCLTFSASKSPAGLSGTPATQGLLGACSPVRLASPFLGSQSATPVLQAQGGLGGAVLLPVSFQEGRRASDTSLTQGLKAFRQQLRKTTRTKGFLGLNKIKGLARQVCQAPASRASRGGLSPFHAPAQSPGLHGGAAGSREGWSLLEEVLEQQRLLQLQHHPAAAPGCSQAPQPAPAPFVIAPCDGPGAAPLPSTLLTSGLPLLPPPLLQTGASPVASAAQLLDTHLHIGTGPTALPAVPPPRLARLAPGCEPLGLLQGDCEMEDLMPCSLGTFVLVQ
smiles,measurement,setting,value
CC(C)C(=O)N1CCN(c2ccc(NC(=O)c3cc4ccccc4o3)cc2Cl)CC1 [Compound 21],Percent Control,[1],98%
same,Percent Control,[2],93%
same,Percent Control,[3],93%
same,Percent Control,[4],100%
same,Percent Control,[5],83%
same,Percent Control,[6],100%
same,Percent Control,[7],100%
same,Percent Control,[8],94%
same,Percent Control,[9],95%
same,Percent Control,[10],93%
same,Percent Control,[11],100%
same,Percent Control,[12],97%
same,Percent Control,[13],100%
same,Percent Control,[14],98%
same,Percent Control,[15],83%
same,Percent Control,[16],84%
same,Percent Control,[17],91%
same,Percent Control,[18],87%
same,Percent Control,[19],98%
same,Percent Control,[20],90%
same,Percent Control,[21],92%
same,Percent Control,[22],100%
same,Percent Control,[23],65%
same,Percent Control,[24],100%
same,Percent Control,[25],96%
same,Percent Control,[26],97%
